As usually defined, the IC50 is the concentration at which inhibition is half-maximal.

Experimental findings from BindingDB's records for PubMed 38943875 (Kurukshetra University) are described below.

For this assay, the target named is T1, Alpha-amylase 1A (Homo sapiens, UniProt P0DUB6).
T1 sequence (P0DUB6 whole entry): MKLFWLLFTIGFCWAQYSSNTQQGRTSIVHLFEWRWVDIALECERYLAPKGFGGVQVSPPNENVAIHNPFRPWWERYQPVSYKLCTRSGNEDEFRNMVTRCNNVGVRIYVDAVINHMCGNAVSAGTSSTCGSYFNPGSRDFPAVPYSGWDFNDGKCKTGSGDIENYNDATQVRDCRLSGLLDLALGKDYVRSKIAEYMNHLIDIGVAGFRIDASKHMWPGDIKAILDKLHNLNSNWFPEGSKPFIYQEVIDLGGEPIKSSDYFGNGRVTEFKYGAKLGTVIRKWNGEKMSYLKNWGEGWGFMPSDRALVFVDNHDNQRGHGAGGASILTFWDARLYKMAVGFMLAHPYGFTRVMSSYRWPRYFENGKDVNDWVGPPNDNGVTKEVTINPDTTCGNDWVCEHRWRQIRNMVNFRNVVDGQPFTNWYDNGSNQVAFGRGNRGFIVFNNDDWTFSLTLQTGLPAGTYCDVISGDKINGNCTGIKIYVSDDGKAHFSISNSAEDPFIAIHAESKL
The assay can be described thus: Inhibition of alpha-amylase (unknown origin) using 1% starch as substrate preincubated for 30 mins followed by substrate addition and measured after 30 mins by colorimetric analysis.
In turn, `C#CCN1C(=O)SC(=CN(C)C)C1=O` displayed a concentration for half-maximal inhibition (IC50) of 139 µM.
With `Cc1cccc(-n2cc(CN3C(=O)SC(=CN(C)C)C3=O)nn2)c1` the figure was 61 µM; with `CN(C)C=C1SC(=O)N(Cc2cn(-c3ccc([N+](=O)[O-])cc3)nn2)C1=O`, 59 µM.
With `CN(C)C=C1SC(=O)N(Cc2cn(-c3ccccc3)nn2)C1=O` the figure was 99 µM; with `COc1ccc(-n2cc(CN3C(=O)SC(=CN(C)C)C3=O)nn2)cc1`, 53 µM.
With `CN(C)C=C1SC(=O)N(Cc2cn(-c3ccnc4cc(Cl)ccc34)nn2)C1=O` the figure was 40 µM.
`CN(C)C=C1SC(=O)N(Cc2cn(-c3ccc(F)cc3)nn2)C1=O` showed an IC50 of 93 µM.
With `CN(C)C=C1SC(=O)N(Cc2cn(-c3cccc(Cl)c3)nn2)C1=O` the figure was 66 µM; with `CN(C)C=C1SC(=O)N(Cc2cn(-c3ccc(Cl)cc3)nn2)C1=O`, 98 µM.
The value for `CCCCn1cc(CN2C(=O)SC(=CN(C)C)C2=O)nn1` was 58 µM.
The value for `CN(C)C=C1SC(=O)N(Cc2cn(-c3ccccc3C(F)(F)F)nn2)C1=O` was 48 µM; that for `CN(C)C=C1SC(=O)N(Cc2cn(-c3cccc(C(F)(F)F)c3)nn2)C1=O` was 55 µM; that for `CN(C)C=C1SC(=O)N(Cc2cn(-c3ccc(C(F)(F)F)cc3)nn2)C1=O` was 84 µM.
For the compound `CN(C)C=C1SC(=O)N(Cc2cn(-c3ccccc3Cl)nn2)C1=O`, the IC50 was found to be 91 µM. This IC50 and that of the compound before are within 1.5-fold of each other.
The value for `COc1cccc(-n2cc(CN3C(=O)SC(=CN(C)C)C3=O)nn2)c1` was 69 µM; that for `Cc1ccc(-n2cc(CN3C(=O)SC(=CN(C)C)C3=O)nn2)c(C)c1` was 48 µM; that for `Cc1ccc(C)c(-n2cc(CN3C(=O)SC(=CN(C)C)C3=O)nn2)c1` was 93 µM.
As for `Cc1cc(C)cc(-n2cc(CN3C(=O)SC(=CN(C)C)C3=O)nn2)c1`, the midpoint of inhibition, the IC50, lay at 66 µM.
With `COc1ccccc1-n1cc(CN2C(=O)SC(=CN(C)C)C2=O)nn1` the figure was 65 µM; with `CN(C)C=C1SC(=O)N(Cc2cn(-c3cccc(Cl)c3Cl)nn2)C1=O`, 60 µM.
With `CCc1ccc(-n2cc(CN3C(=O)SC(=CN(C)C)C3=O)nn2)cc1` the figure was 68 µM.
With `CCc1ccccc1-n1cc(CN2C(=O)SC(=CN(C)C)C2=O)nn1` the figure was 49 µM; with `CC(C)c1ccc(-n2cc(CN3C(=O)SC(=CN(C)C)C3=O)nn2)cc1`, 54 µM.
`CN(C)C=C1SC(=O)N(Cc2cn(Cc3ccccc3)nn2)C1=O` came in with a half-maximal inhibitory concentration (IC50) of 80 µM.
The compound `CN(C)C=C1SC(=O)N(Cc2cn(Cc3ccc(Cl)cc3Cl)nn2)C1=O` showed an IC50 of 45 µM.
The value for `CN(C)C=C1SC(=O)N(Cc2cn(CC(=O)c3ccc(Br)cc3)nn2)C1=O` was 78 µM.
